Where two headings read alike, the source gives them in different places.

In one data set the target is T1, recombinant ZMO0976 (Zymomonas mobilis, UniProt Q5NNW0).
T1 sequence (Q5NNW0 1-340): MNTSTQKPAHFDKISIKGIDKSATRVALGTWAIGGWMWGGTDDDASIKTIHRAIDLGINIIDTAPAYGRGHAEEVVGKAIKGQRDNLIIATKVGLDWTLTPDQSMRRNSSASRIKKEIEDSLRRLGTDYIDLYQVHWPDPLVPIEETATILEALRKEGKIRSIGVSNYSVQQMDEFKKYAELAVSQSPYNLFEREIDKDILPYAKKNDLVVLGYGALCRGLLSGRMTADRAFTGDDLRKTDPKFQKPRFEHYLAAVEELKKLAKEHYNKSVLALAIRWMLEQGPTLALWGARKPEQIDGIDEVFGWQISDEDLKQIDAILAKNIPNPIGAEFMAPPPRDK
Briefly: Substrate and cofactor profile and Michaelis-Menten kinetics of recombinant ZMO0976. The data set is classed as biochemical, Z. mobilis. As to the method:
(§1) E. coli cells were prepared for enzymatic assays using the procedure described in, for example, Akinterinwa, and Cirino, “Heterologous expression of D-xylulokinase from Pichia stipitis enables high levels of xylitol production by engineered Escherichia coli growing on xylose,” Metabolic Engineering 11(1): pp. 48-55. Briefly, cells were harvested by centrifugation at 5,000 g at 4° C. for 30 min. Cells were washed once with extraction buffer [10 mM Tris-HCl pH 7.5, 5 mM MgCl2, 1 mM dithothreitol (DTT) and 1 mM phenylmethylsulfonyl fluoride (PMSF) (Sigma-Aldrich, St. Louis, Mo.)]. Washed cell pellets were stored at −20° C. until use. Cell pellets were resuspended to an OD of 50 in equilibration buffer (50 mM Na2HPO4, 300 mM NaCl and 10 mM imidazole at pH 8 (Sigma-Aldrich, St. Louis, Mo.)) supplemented with 1 mM DTT and 1 mM PMSF, and sonicated (8 cycles of 10 s with 30 s cooling period). Cell debris was discarded after centrifugation at 16,000 g for 20 min at 4° C. Supernatant was used as cell-free extract (CFE) for enzymatic assays. Bradford Assay was used for estimation of protein concentration in the extract. His-tagged protein in the cell-free extract was purified at 4° C. using HIS-Select® HF Nickel Affinity Gel (Sigma-Aldrich, St. Louis, Mo.), which employs immobilized metal-ion affinity chromatography (IMAC). Manufacturer's protocol for large scale purification was followed. Briefly, 10 ml of cell-free extract was added to 1 ml of affinity gel in equilibration buffer. After overnight incubation, the gel was washed five times with equilibration buffer. The bound his-tagged protein was then eluted using 2 ml of elution buffer (50 mM Na2HPO4, 300 mM NaCl and 250 mM imidazole at pH 8). Imidazole was removed by overnight dialysis at 4° C. using extraction buffer as the dialysis solution.
(§2) Cell-free extract for Z. mobilis was prepared as above except that extraction buffer was used for sonication and after which, cell debris were spun down at higher centrifugal force (53,300 g). All enzymatic assay reactions were carried out in a final volume of 200 μl on a microplate. NAD(P)H (Sigma-Aldrich, St. Louis, Mo.) absorbance was measured at 340 nm using Spectramax M5 Plus spectrophotometer (Molecular devices, Sunnyvale, Calif.). Xylose reductase was assayed in McIlvaine buffer at pH 7.2 (prepared by adding 16.5 ml of 0.2 M Na2HPO4 to 3.5 ml of 0.1 M citric acid (Sigma-Aldrich, St. Louis, Mo.)) containing 0.35 mM NADPH or NADH (as indicated) and an appropriate volume of sample (cell-free extract or purified protein) according to Viikari, L. and M. Korhola (1986), “Fructose metabolism in Zymomonas mobilis,” Applied Microbiology and Biotechnology 24(6): 471-476.
(§3) Xylose concentration in the assay mixture is indicated in the text. For measuring the catalytic activity of xylose reductase towards other substrates, similar assay conditions were used. Km and Vmax were determined by varying the substrate concentrations in the assay mixture and fitting the data to Lineweaver-Burk equation: 1/v=(Km/Vmax) […]+1/Vmax. Xylitol concentration was determined enzymatically. The reaction was carried out with a total volume of 200 μl in 42 mM Tris-HCl buffer at pH 8.5, 5 mM NAD, 10 mM MgSO4 (Sigma-Aldrich, St. Louis, Mo.), 4 U/ml sorbitol dehydrogenase (Roche Diagnostics, Indianapolis, Ind.) and 10 μl of sample. Xylitol concentration was estimated based on the amount of NADH produced by xylitol containing samples compared to that produced by xylitol standards. SDS-PAGE and Coommassie blue staining were used to confirm the expression of ZMO0976 and mZMO0976 proteins. 15 μg of cell-free extract protein and 1 μg of purified protein were loaded on a 12% Tris-HCl gel (Bio-Rad, Hercules, Calif.). Cell growth was determined by measuring optical density (OD) at 600 nm using spectrophotometer (Beckman Coulter DU 530, Brea, Calif.).

Another data set concerns Z. mobilis. The following applies: cited from earlier work.
Data set [1] can be described thus: Reductase activity of purified ZMO0976/mZMO0976 towards acetaldehyde. The data set is classed as biochemical. The following applies: for Specific XR activity, Acetaldehyde (520 mM): purified protein, no unit in table, in mU/mg protein. How it is done:
(§4) E. coli cells were prepared for enzymatic assays using the procedure described in, for example, Akinterinwa, and Cirino, “Heterologous expression of D-xylulokinase from Pichia stipitis enables high levels of xylitol production by engineered Escherichia coli growing on xylose,” Metabolic Engineering 11(1): pp. 48-55. Briefly, cells were harvested by centrifugation at 5,000 g at 4° C. for 30 min. Cells were washed once with extraction buffer [10 mM Tris-HCl pH 7.5, 5 mM MgCl2, 1 mM dithothreitol (DTT) and 1 mM phenylmethylsulfonyl fluoride (PMSF) (Sigma-Aldrich, St. Louis, Mo.)]. Washed cell pellets were stored at −20° C. until use. Cell pellets were resuspended to an OD of 50 in equilibration buffer (50 mM Na2HPO4, 300 mM NaCl and 10 mM imidazole at pH 8 (Sigma-Aldrich, St. Louis, Mo.)) supplemented with 1 mM DTT and 1 mM PMSF, and sonicated (8 cycles of 10 s with 30 s cooling period). Cell debris was discarded after centrifugation at 16,000 g for 20 min at 4° C. Supernatant was used as cell-free extract (CFE) for enzymatic assays. Bradford Assay was used for estimation of protein concentration in the extract. His-tagged protein in the cell-free extract was purified at 4° C. using HIS-Select® HF Nickel Affinity Gel (Sigma-Aldrich, St. Louis, Mo.), which employs immobilized metal-ion affinity chromatography (IMAC). […]
(§5) Cell-free extract for Z. mobilis was prepared as above except that extraction buffer was used for sonication and after which, cell debris were spun down at higher centrifugal force (53,300 g). […] NAD(P)H (Sigma-Aldrich, St. Louis, Mo.) absorbance was measured at 340 nm using Spectramax M5 Plus spectrophotometer (Molecular devices, Sunnyvale, Calif.). […]
(§6) Xylose concentration in the assay mixture is indicated in the text. […] Km and Vmax were determined by varying the substrate concentrations in the assay mixture and fitting the data to Lineweaver-Burk equation: 1/v=(Km/Vmax) […]+1/Vmax. Xylitol concentration was determined enzymatically. […] Cell growth was determined by measuring optical density (OD) at 600 nm using spectrophotometer (Beckman Coulter DU 530, Brea, Calif.).

Data set [2] can be described thus: Reductase activity of purified ZMO0976/mZMO0976 towards furfural. It counts as biochemical. The following applies: for Specific XR activity, Furfural (10 mM): purified protein, no unit in table, in mU/mg protein. As to the method: as §4, §5, §6
Data set [3] in a line: Reductase activity of purified ZMO0976/mZMO0976 towards benzaldehyde. It counts as biochemical. The following applies: for Specific XR activity, Benzaldehyde (2 mM): purified protein, no unit in table, in mU/mg protein. As to the method:
as §4, §5, §6

The nature of data set [4]: NADPH-dependent xylose reductase (XR) activity of recombinant ZMO0976/mZMO0976, E. coli UT5600 cell-free extract and purified protein. It counts as biochemical. The following applies: for XR activities of the purified proteins: His-tag purified protein, NADPH; for Xylose reductase activity: NADPH as cofactor, purified protein or cell-free extract (CFE) as named in label. How it is done:
as §1, §2
as §3, with “Xylitol concentration was estimated based on the amount of NADH produced by xylitol containing samples compared to that produced by xylitol standards. SDS-PAGE and Coommassie blue staining were used to confirm the expression of ZMO0976 and mZMO0976 proteins. 15 μg of cell-free extract protein and 1 μg of purified protein were loaded on a 12% Tris-HCl gel (Bio-Rad, Hercules, Calif.).” left out

The mark [5] stands for this setting: substrate 260 mM; NADPH cofactor; benzaldehyde = 1.
The mark [6] stands for this setting: 0.35 mM NADPH; Lineweaver-Burk fit.

Take `CC=O` [Acetaldehyde]: the “Activity of ZMO0976 towards the substrate (in words)” value (shortened to “Activity … (in words)”) on recombinant ZMO0976 (NADPH as cofactor) is reported as “showed activity”. Besides, the “Fold reduction in ZMO0976 activity with NADH as cofactor compared to NADPH” value at recombinant ZMO0976 (substrate 260 mM; 0.35 mM of either cofactor) amounted to 53. In addition, the Relative activity on recombinant ZMO0976 (setting [5]) amounted to 0.62.

For orientation: Km means the substrate concentration at which the rate is half of its maximum. Regarding `O=Cc1ccccc1` [Benzaldehyde], at recombinant ZMO0976, the “Affinity of ZMO0976 compared with xylose (in words)” value is given as “one to two orders of magnitude higher” and the “Km, fold lower than xylose” value is recorded as “about 150 fold”. In addition, the “Apparent Vmax” value at recombinant ZMO0976 (setting [6]) came out at 7200 ± 200 mU/mg protein. On recombinant ZMO0976 (0.35 mM NADPH; Lineweaver-Burk fit; read-out: Apparent Km), the Km worked out at 1770 µM. In addition, the “Activity … (in words)” value on recombinant ZMO0976 (NADPH as cofactor) is given as “showed activity”. The Relative activity at recombinant ZMO0976 (substrate 2 mM; NADPH cofactor; benzaldehyde = 1) is 1.

As for `O=C(CO)[C@@H](O)[C@H](O)[C@H](O)CO` [Fructose], the “Activity … (in words)” value at recombinant ZMO0976 (NADPH as cofactor) is “negligible activity”. On recombinant ZMO0976 (setting [5]), the Relative activity amounted to 0.

Regarding `O=Cc1ccco1` [Furfural], at recombinant ZMO0976, the “Affinity of ZMO0976 compared with xylose (in words)” value is “one to two orders of magnitude higher”. The “Apparent Vmax” value on recombinant ZMO0976 (setting [6]) is 5000 ± 1300 mU/mg protein. Also, on recombinant ZMO0976 (NADPH as cofactor), the “Activity … (in words)” value was “showed activity”. Also, at recombinant ZMO0976 (read-out: Apparent Km; 0.35 mM NADPH; Lineweaver-Burk fit), the Km is 4150 µM. Also, on recombinant ZMO0976 (substrate 5.2 mM; NADPH cofactor; benzaldehyde = 1), the Relative activity was determined as 0.81. Further, the “Fold reduction in ZMO0976 activity with NADH as cofactor compared to NADPH” value at recombinant ZMO0976 (substrate 10 mM; 0.35 mM of either cofactor) is listed as 10. In the data set on Z. mobilis, the “Concentration at which growth is completely inhibited” value is 52 mM and the “Concentration that reduces the growth rate of Z. mobilis by 25%” value is 7.3 mM.

Regarding `O=Cc1ccc(CO)o1` [HMF, 5-hydroxymethylfurfural], the “Activity … (in words)” value at recombinant ZMO0976 (NADPH as cofactor) was “showed activity”. Moreover, the Relative activity at recombinant ZMO0976 (substrate 10 mM; NADPH cofactor; benzaldehyde = 1) is recorded as 0.11. Moreover, in the data set on Z. mobilis, the “Concentration at which growth is completely inhibited” value is on record as 63 mM and the “Concentration that reduces the growth rate of Z. mobilis by 25%” value is listed as 9.5 mM.

B1: ZMO0976: 341 amino acid aldo/keto reductase of Z. mobilis ZM4, His-tagged, expressed in E. coli UT5600 (protein)
chain: MNTSTQKPAHFDKISIKGIDKSATRVALGTWAIGGWMWGGTDDDASIKTIHRAIDLGINIIDTAPAYGRGHAEEVVGKAIKGQRDNLIIATKVGLDWTLTPDQSMRRNSSASRIKKEIEDSLRRLGTDYIDLYQVHWPDPLVPIEETATILEALRKEGKIRSIGVSNYSVQQMDEFKKYAELAVSQSPYNLFEREIDKDILPYAKKNDLVVLGYGALCRGLLSGRMTADRAFTGDDLRKTDPKFQKPRFEHYLAAVEELKKLAKEHYNKSVLALAIRWMLEQGPTLALWGARKPEQIDGIDEVFGWQISDEDLKQIDAILAKNIPNPIGAEFMAPPPRDK
modifications: His tag; sequence of aldo/keto reductase ZMO0976 (see Fig. 4A)
notes: 341 amino acid aldo/keto reductase of Z. mobilis ZM4, His-tagged, expressed in E. coli UT5600
On to B1, for which, in data set [1], the acetaldehyde reductase activity is recorded as 2500±400 mU/mg protein and the “Specific XR activity, Acetaldehyde (520 mM)” value is 2500 ± 400. In data set [2], the furfural reductase activity is reported as 5470±60 mU/mg protein and the “Specific XR activity, Furfural (10 mM)” value was determined as 5470 ± 60. Further, in data set [3], the benzaldehyde reductase activity is listed as 4030±250 mU/mg protein and the “Specific XR activity, Benzaldehyde (2 mM)” value worked out at 4030 ± 250. Also, the “XR activities of the purified proteins” value in data set [4] was 3400 mU/mg. Further, the Xylose reductase activity in data set [4] (listed as Purified recombinant ZMO0976) is reported as 3400 ± 200 mU/mg protein. Further, the Xylose reductase activity in data set [4] (listed as ZM00976) is 3400±200 mU/mg protein.

B2: mZMO0976: mutated ZMO0976 from adapted strain A3, single arginine to cysteine mutation at residue 292 (C874T) (protein)
chain: MNTSTQKPAHFDKISIKGIDKSATRVALGTWAIGGWMWGGTDDDASIKTIHRAIDLGINIIDTAPAYGRGHAEEVVGKAIKGQRDNLIIATKVGLDWTLTPDQSMRRNSSASRIKKEIEDSLRRLGTDYIDLYQVHWPDPLVPIEETATILEALRKEGKIRSIGVSNYSVQQMDEFKKYAELAVSQSPYNLFEREIDKDILPYAKKNDLVVLGYGALCRGLLSGRMTADRAFTGDDLRKTDPKFQKPRFEHYLAAVEELKKLAKEHYNKSVLALAIRWMLEQGPTLALWGACKPEQIDGIDEVFGWQISDEDLKQIDAILAKNIPNPIGAEFMAPPPRDK
modifications: His tag; sequence of aldo/keto reductase mZMO0976 (see Fig. 4B)
As to B2, in data set [1], the “Specific XR activity, Acetaldehyde (520 mM)” value came out at 170 ± 30. Moreover, the “Specific XR activity, Furfural (10 mM)” value in data set [2] is 180 ± 30. Besides, the “Specific XR activity, Benzaldehyde (2 mM)” value in data set [3] was 40 ± 10. In data set [4], the “XR activities of the purified proteins” value is given as 140 mU/mg and the Xylose reductase activity worked out at 140 ± 50 mU/mg protein.

The values above are taken from patent US20120196342A1, “Industrial Applications of A Novel Aldo/Keto Reductase Of Zymomonas Mobilis” (priority 2011, published 2012).
